From patent US12478677B2, “Tunable luminescent organic salts for enhanced imaging and photodynamic therapy” (BOARD OF TRUSTEES OF MICHIGAN STATE UNIVERSITY, priority 2017, dated 2025)
pIC50: −log10 of the molar value. Where two headings read alike, the source gives them in different places.

Key:
[1] = Salt integrity and aggregation in cell media (mass spectrometry, electron microscopy, UV-Vis); type: physicochemical; settings: high resolution mass spectrometry, electron microscopy, UV-Vis spectroscopy
Excerpt: FIGS. 7A-7C. […] Organic salts were first dissolved in DMSO and then diluted in water, forming nanoparticles. […] Combinations of H- and J-aggregation of organic salts can be seen by blue-shifted peaks (lower wavelength) and red-shifted peaks (higher wavelength), respectively. The nanoparticles with small hard anions redissolve in cell media likely due to sterics. […] This is achieved by cation-anion pairs of luminescent organic salts that can be modulated to be either non-toxic for enhanced imaging, or phototoxic for improved PDT. […] IR polymethine cyanine dyes, which have been used as effective theranostics are described. […] This is thought to occur through a mechanism mitigated by tumor vascularization, increased retention in cancer cells, and mitochondrial depolarization. Once in the cell, they accumulate in the mitochondria and lysosomes, where irradiation induces generation of cytotoxic oxygen species. A strategy is described for preventing or inhibiting salt dissociation in cells: aggregates are formed via introduction of the salt into an aqueous media by a solvent vehicle, forming particles with diameters of about 5 nm in size with no precipitation observed. […] This is confirmed by high resolution mass spectrometry, electron microscopy, and UV-Vis spectroscopy. […] Normalized absorption data are sown in FIGS. 7A, 7B, and 7C. This is likely due to steric effects, where if the counterion radius is too small it is not able to protect the nanoparticle stability. This can be characterized by the volume-averaged effective spherical radius of the counterions, where the cutoff is at about 0.275 nm.

[2] = Nanoparticle aggregation size from SEM images; type: physicochemical; settings: no observable precipitation
Excerpt: FIG. 6. is a graph showing exemplary nanoparticle aggregation size distribution measured from SEM images (inset, scale bar=100 nm) of CyTPFB. Average aggregate size is 5.6±1.8 nm with no observable precipitation. […] This is achieved by cation-anion pairs of luminescent organic salts that can be modulated to be either non-toxic for enhanced imaging, or phototoxic for improved PDT. […] IR polymethine cyanine dyes, which have been used as effective theranostics are described. […] This is thought to occur through a mechanism mitigated by tumor vascularization, increased retention in cancer cells, and mitochondrial depolarization. Once in the cell, they accumulate in the mitochondria and lysosomes, where irradiation induces generation of cytotoxic oxygen species. A strategy is described for preventing or inhibiting salt dissociation in cells: aggregates are formed via introduction of the salt into an aqueous media by a solvent vehicle, forming particles with diameters of about 5 nm in size with no precipitation observed. […] This is confirmed by high resolution mass spectrometry, electron microscopy, and UV-Vis spectroscopy. […] Normalized absorption data are sown in FIGS. 7A, 7B, and 7C. This is likely due to steric effects, where if the counterion radius is too small it is not able to protect the nanoparticle stability. […]

A549 cells [3] = test: Luminescent imaging of cells; type: cell-based, human
Method: Images are obtained using a Leica DMi8 microscope with a PE4000 LED light source, DFC9000GT camera, and LAS X imaging system. A549 cells are seeded in 3 cm tissue culture plates at a density of 50,000 cells per well in DMEM media containing luminescent organic salts at indicated concentrations. The cells incubate for 2 days at 37° C. with 5% CO2 until the day of imaging. For live cell imaging, the media is aspirated and replaced with fresh dye-free media to reduce background noise. For fixed cell imaging, cells are grown on 0.5 mm coverslips within 3 cm plates. The media is aspirated and the cells are washed with phosphate buffered saline (PBS) before being submerged in cold methanol and incubated at −20° C. for 15 minutes. The cells are then washed with PBS 5 times, and the coverslips are then mounted to slides using DAPI with Fluoromount-G.

A549 cells [4] = test: Viability studies (trypan blue staining and cell counting) with or without IR excitation; type: cell-based, human; settings: for pIC50: linear regression analysis; for Toxicity in words, dark and light: with or without IR (850 nm) excitation; for Concentration at which still non-toxic: cells
Method: The cell lines human lung carcinoma (A549), metastatic human melanoma (WM1158) and Vemurafenib-resistant melanoma (Sk-Mel-28-Vem^R) are used. Sk-Mel-28-Vem^R is generated by culturing a parental melanoma cell lines in the presence of 2 μM Vemurafenib for 2 months. Acquired Vemurafenib resistance is defined by >1 log change in IC50 between nonresistant and resistant cell lines. Resistance is maintained through media supplementation with 2 μM Vemurafenib, which is changed every 48 hours. All cells are cultured in DMEM without pyruvate with 10% heat inactivated fetal bovine serum supplemented with glutamine and penicillin/streptomycin, and incubated in 37° C. with 5% CO2.
A549 and WM1158 cells are seeded at a density of 50,000 cells per well in 6-well tissue culture plates. After 24 hours of incubation, media is aspirated and replaced with media containing luminescent dyes at indicated concentrations. Each well is irradiated with an 850 nm LED lamp with an illumination rate of 526 mW/cm^2 for an hour in the incubator, and control cells are left in a dark incubator without irradiation. For studies with Cy7, a 740 nm LED lamp is used instead of an 850 nm, but with a similar illumination flux. Immediately after irradiation, the media is replenished with fresh dye-laced media and allowed to incubate for another 24 hours. […] Viable cell number is determined at 24 and 96 hours using trypan blue staining and a Nexcelom Cellometer Auto T4 cell counter. All assays are done with 3 biological replicates. The fold change in cell proliferation over days of treatment was calculated using the following equation.

## CCN1C(=CC=C2CCCC(C=CC3=[N+](CC)c4ccc5ccccc5c4C3(C)C)=C2Cl)C(C)(C)c2c1ccc1ccccc21.Fc1c(F)c(F)c([B-](c2c(F)c(F)c(F)c(F)c2F)(c2c(F)c(F)c(F)c(F)c2F)c2c(F)c(F)c(F)c(F)c2F)c(F)c1F [CyTPFB]
[1]
  Integrity of salt pairing in cellular environments: maintained in cellular environments
[2]
  Average aggregate size: 5.6±1.8 nm
A549 cells [3]
  Cellular localization versus concentration in media, in words: localize inside cells proportionally to the initial introduced concentration in the cellular media
A549 cells [4]; A549 cells, 850 nm irradiation, read-out: IC50 850 nm
  pIC50: 4.96
A549 cells [4]; A549 cells, IR (850 nm) excitation
  Phototoxicity with IR excitation, in words: non phototoxic to orders of magnitude higher concentrations
A549 cells [4]; A549 cells, dark, no irradiation, read-out: IC50 Dark
  pIC50: 3.90
A549 cells [4]; A549 cells, listed as Cy^+ paired with TPFB^−
  Fold concentration relative to CyPF6 at which still non-toxic: greater than 75 fold
A549 cells [4]; A549 cells
  Toxicity in words, dark and light: non-toxic
A549 cells [4]; A549 cells, listed as Cy^+ paired with TPFB
  Toxicity in words, dark and light: not toxic to cells in the dark and in the light
A549 cells [4]; A549 cells, without IR excitation
  Toxicity in the dark, in words: deactivates the dark cellular toxicity
A549 cells [4]
  Concentration at which still non-toxic: 20 µM
A549 cells [4]; listed as Cy^+ paired with TPFB^−
  Concentration at which still non-toxic: 126 µM
